This passage reports mortality results from ChEMBL document CHEMBL3046536, “Synthesis, crystal structure, and insecticidal activity of novel N-alkyloxyoxalyl derivatives of 2-arylpyrrole” (2008).

What all share (format): functional
Assay [1] relates to Tetranychus cinnabarinus. As to the kind of experiment: Insecticidal activity against Tetranychus cinnabarinus (carmine spider mite) infested on Sieva bean plants leaves exposed to compound formulation at 50 mg/kg assessed as insect mortality measured 2 days post compound treatment. The settings on record: 48 h.
Assay [2] deals with Mythimna separata. As to the kind of experiment: Insecticidal activity against Mythimna separata (Oriental armyworm) fourth-instar larvae infested compound pre-treated corn leaves assessed as insect mortality at 20 mg/kg measured 2 days post compound treatment.
For assay [3], the system named is Tetranychus cinnabarinus. As to the kind of experiment: Insecticidal activity against Tetranychus cinnabarinus (carmine spider mite) infested on Sieva bean plants leaves exposed to compound formulation at 200 mg/kg assessed as insect mortality measured 2 days post compound treatment. As to conditions: 48 h.
The test system of assay [4] is Mythimna separata. As to the kind of experiment: Insecticidal activity against Mythimna separata (Oriental armyworm) fourth-instar larvae infested compound pre-treated corn leaves assessed as insect mortality at 10 mg/kg measured 2 days post compound treatment.
For assay [5], the system named is Tetranychus cinnabarinus. As to the kind of experiment: Insecticidal activity against Tetranychus cinnabarinus (carmine spider mite) infested on Sieva bean plants leaves exposed to compound formulation at 100 mg/kg assessed as insect mortality measured 2 days post compound treatment. The settings on record: 48 h.
In assay [6] the test system is Culex pipiens pallens. Put plainly: Insecticidal activity against Culex pipiens pallens (mosquito) fourth-instar larvae assessed as insect mortality at 0.25 mg/kg measured 2 days post compound treatment. The settings on record: 48 h.
Assay [7] deals with Culex pipiens pallens. Put plainly: Insecticidal activity against Culex pipiens pallens (mosquito) fourth-instar larvae assessed as insect mortality at 0.5 mg/kg measured 2 days post compound treatment. The settings on record: 48 h.
The subject of assay [8] is Culex pipiens pallens. Put plainly: Insecticidal activity against Culex pipiens pallens (mosquito) fourth-instar larvae assessed as insect mortality at 0.1 mg/kg measured 2 days post compound treatment. As to conditions: 48 h.
Assay [9] has as its system Mythimna separata. Put plainly: Insecticidal activity against Mythimna separata (Oriental armyworm) fourth-instar larvae infested compound pre-treated corn leaves assessed as insect mortality at 5 mg/kg measured 2 days post compound treatment.

On to `C/C=C/NC(=O)C(=O)OCn1c(-c2ccc(Cl)cc2)c(C#N)c(Br)c1C(F)(F)F`, for which the mortality at 50 mg/kg with Tetranychus cinnabarinus [1] was 89%. Also, the mortality at 20 mg/kg with Mythimna separata [2] is 100%. In addition, in the assay with Tetranychus cinnabarinus [3], the mortality at 200 mg/kg is 96%. Moreover, in the assay on Mythimna separata [4], the mortality at 10 mg/kg was 15%. Moreover, in the assay on Tetranychus cinnabarinus [5], the mortality at 100 mg/kg amounted to 93%.
Take `N#Cc1c(Br)c(C(F)(F)F)n(COC(=O)C(=O)Nc2ccccc2)c1-c1ccc(Cl)cc1`: the mortality at 0.25 mg/kg in the assay on Culex pipiens pallens [6] came to 30%. Also, the mortality at 50 mg/kg in the assay with Tetranychus cinnabarinus [1] is 86%. For the same compound, the mortality at 20 mg/kg in the assay with Mythimna separata [2] was 100%. Moreover, the mortality at 200 mg/kg in the assay with Tetranychus cinnabarinus [3] worked out at 99%. Further, in the assay with Mythimna separata [4], the mortality at 10 mg/kg was 0%. Further, in the assay on Culex pipiens pallens [7], the mortality at 0.5 mg/kg was determined as 100%. Further, the mortality at 100 mg/kg in the assay with Tetranychus cinnabarinus [5] came to 92%. In addition, in the assay with Culex pipiens pallens [8], the mortality at 0.1 mg/kg was found to be 0%.
Turning to `Cc1ccc(NC(=O)C(=O)OCn2c(-c3ccc(Cl)cc3)c(C#N)c(Br)c2C(F)(F)F)cc1`, the mortality at 0.25 mg/kg in the assay on Culex pipiens pallens [6] turned out to be 100%. For the same compound, the mortality at 50 mg/kg in the assay on Tetranychus cinnabarinus [1] stood at 79%. The mortality at 20 mg/kg in the assay with Mythimna separata [2] was determined as 100%. The mortality at 200 mg/kg in the assay on Tetranychus cinnabarinus [3] is 96%. Besides, in the assay with Mythimna separata [4], the mortality at 10 mg/kg is 10%. The mortality at 0.5 mg/kg in the assay with Culex pipiens pallens [7] was 100%. Besides, in the assay with Tetranychus cinnabarinus [5], the mortality at 100 mg/kg came out at 90%. For the same compound, the mortality at 0.1 mg/kg in the assay on Culex pipiens pallens [8] amounted to 40%.
Regarding `N#Cc1c(Br)c(C(F)(F)F)n(COC(=O)C(=O)Nc2ccc(Cl)cc2)c1-c1ccc(Cl)cc1`, the mortality at 0.25 mg/kg with Culex pipiens pallens [6] stood at 10%. In addition, the mortality at 50 mg/kg with Tetranychus cinnabarinus [1] turned out to be 84%. In the assay on Mythimna separata [2], the mortality at 20 mg/kg was determined as 100%. In addition, in the assay with Tetranychus cinnabarinus [3], the mortality at 200 mg/kg was found to be 100%. For the same compound, the mortality at 10 mg/kg in the assay on Mythimna separata [4] was 20%. The mortality at 0.5 mg/kg in the assay with Culex pipiens pallens [7] turned out to be 100%. Also, the mortality at 100 mg/kg in the assay on Tetranychus cinnabarinus [5] was 92%. The mortality at 0.1 mg/kg with Culex pipiens pallens [8] stood at 0%.
On to `CC(C)COC(=O)C(=O)OCn1c(-c2ccc(Cl)cc2)c(C#N)c(Br)c1C(F)(F)F`, for which the mortality at 0.25 mg/kg in the assay on Culex pipiens pallens [6] is 90%. Further, the mortality at 5 mg/kg in the assay on Mythimna separata [9] is 0%. In addition, the mortality at 20 mg/kg in the assay with Mythimna separata [2] turned out to be 100%. The mortality at 200 mg/kg in the assay on Tetranychus cinnabarinus [3] was 100%. Further, the mortality at 10 mg/kg with Mythimna separata [4] is 100%. Besides, the mortality at 0.5 mg/kg in the assay with Culex pipiens pallens [7] was 100%. Besides, in the assay on Culex pipiens pallens [8], the mortality at 0.1 mg/kg is 10%.
As to `CCC(C)OC(=O)C(=O)OCn1c(-c2ccc(Cl)cc2)c(C#N)c(Br)c1C(F)(F)F` (stereo unspecified), in the assay with Culex pipiens pallens [6], the mortality at 0.25 mg/kg is 90%. Besides, the mortality at 5 mg/kg in the assay on Mythimna separata [9] was determined as 0%. For the same compound, the mortality at 20 mg/kg in the assay with Mythimna separata [2] was determined as 100%. Moreover, the mortality at 200 mg/kg in the assay with Tetranychus cinnabarinus [3] amounted to 100%. Moreover, the mortality at 10 mg/kg in the assay on Mythimna separata [4] came out at 100%. In addition, the mortality at 0.5 mg/kg in the assay on Culex pipiens pallens [7] came out at 100%. Further, in the assay with Culex pipiens pallens [8], the mortality at 0.1 mg/kg came to 10%.
Turning to `N#Cc1c(Br)c(C(F)(F)F)n(COC(=O)C(=O)OCC2CCCC2)c1-c1ccc(Cl)cc1`, the mortality at 0.25 mg/kg with Culex pipiens pallens [6] stood at 100%. For the same compound, the mortality at 50 mg/kg in the assay on Tetranychus cinnabarinus [1] was found to be 84%. The mortality at 20 mg/kg with Mythimna separata [2] came to 100%. The mortality at 200 mg/kg in the assay on Tetranychus cinnabarinus [3] came out at 100%. Besides, the mortality at 10 mg/kg in the assay on Mythimna separata [4] worked out at 30%. Besides, the mortality at 0.5 mg/kg in the assay on Culex pipiens pallens [7] was found to be 100%. Moreover, the mortality at 100 mg/kg with Tetranychus cinnabarinus [5] came to 90%. Moreover, the mortality at 0.1 mg/kg with Culex pipiens pallens [8] stood at 20%.
Regarding `N#Cc1c(Br)c(C(F)(F)F)n(COC(=O)C(=O)OCCF)c1-c1ccc(Cl)cc1`, the mortality at 0.25 mg/kg with Culex pipiens pallens [6] was 100%. Also, the mortality at 50 mg/kg in the assay with Tetranychus cinnabarinus [1] is 83%. The mortality at 20 mg/kg in the assay with Mythimna separata [2] is 100%. In the assay on Tetranychus cinnabarinus [3], the mortality at 200 mg/kg was 100%. The mortality at 10 mg/kg in the assay on Mythimna separata [4] was determined as 10%. Besides, the mortality at 0.5 mg/kg with Culex pipiens pallens [7] is 100%. In addition, the mortality at 100 mg/kg in the assay with Tetranychus cinnabarinus [5] was 92%. Further, the mortality at 0.1 mg/kg in the assay on Culex pipiens pallens [8] came out at 100%.
In the case of `N#Cc1c(Br)c(C(F)(F)F)n(COC(=O)C(=O)OCC(F)(F)F)c1-c1ccc(Cl)cc1`, the mortality at 0.25 mg/kg in the assay on Culex pipiens pallens [6] was determined as 30%. Also, the mortality at 50 mg/kg in the assay on Tetranychus cinnabarinus [1] was 92%. Moreover, the mortality at 20 mg/kg in the assay with Mythimna separata [2] amounted to 70%. In addition, the mortality at 200 mg/kg in the assay with Tetranychus cinnabarinus [3] is 100%. Besides, in the assay with Mythimna separata [4], the mortality at 10 mg/kg worked out at 10%. Besides, the mortality at 0.5 mg/kg with Culex pipiens pallens [7] turned out to be 100%. The mortality at 100 mg/kg with Tetranychus cinnabarinus [5] was 95%. Besides, the mortality at 0.1 mg/kg in the assay with Culex pipiens pallens [8] was 0%.
For the compound `COCCOC(=O)C(=O)OCn1c(-c2ccc(Cl)cc2)c(C#N)c(Br)c1C(F)(F)F`, the mortality at 0.25 mg/kg in the assay on Culex pipiens pallens [6] is 90%. In addition, the mortality at 50 mg/kg in the assay with Tetranychus cinnabarinus [1] came to 94%. In addition, the mortality at 20 mg/kg in the assay on Mythimna separata [2] is 100%. In addition, the mortality at 200 mg/kg in the assay with Tetranychus cinnabarinus [3] is 100%. For the same compound, the mortality at 10 mg/kg in the assay with Mythimna separata [4] was found to be 20%. Moreover, in the assay on Culex pipiens pallens [7], the mortality at 0.5 mg/kg worked out at 100%. The mortality at 100 mg/kg in the assay with Tetranychus cinnabarinus [5] was found to be 95%. In addition, in the assay with Culex pipiens pallens [8], the mortality at 0.1 mg/kg worked out at 20%.
For the compound `CC(C)NC(=O)C(=O)OCn1c(-c2ccc(Cl)cc2)c(C#N)c(Br)c1C(F)(F)F`, in the assay on Culex pipiens pallens [6], the mortality at 0.25 mg/kg stood at 80%. Also, the mortality at 50 mg/kg with Tetranychus cinnabarinus [1] was 87%. In the assay on Mythimna separata [2], the mortality at 20 mg/kg amounted to 100%. Also, in the assay on Tetranychus cinnabarinus [3], the mortality at 200 mg/kg came to 100%. The mortality at 10 mg/kg with Mythimna separata [4] is 20%. In addition, the mortality at 0.5 mg/kg in the assay with Culex pipiens pallens [7] stood at 100%. For the same compound, the mortality at 100 mg/kg in the assay with Tetranychus cinnabarinus [5] was determined as 95%. Moreover, the mortality at 0.1 mg/kg in the assay on Culex pipiens pallens [8] amounted to 30%.
As to `CCCCNC(=O)C(=O)OCn1c(-c2ccc(Cl)cc2)c(C#N)c(Br)c1C(F)(F)F`, the mortality at 0.25 mg/kg in the assay on Culex pipiens pallens [6] came to 90%. For the same compound, the mortality at 20 mg/kg in the assay with Mythimna separata [2] is 100%. Moreover, the mortality at 200 mg/kg in the assay on Tetranychus cinnabarinus [3] was determined as 48%. The mortality at 10 mg/kg in the assay on Mythimna separata [4] is 0%. In addition, the mortality at 0.5 mg/kg in the assay with Culex pipiens pallens [7] stood at 100%. In addition, the mortality at 100 mg/kg in the assay with Tetranychus cinnabarinus [5] stood at 0%. Further, the mortality at 0.1 mg/kg with Culex pipiens pallens [8] is 20%.
In the case of `CCCOC(=O)C(=O)OCn1c(-c2ccc(Cl)cc2)c(C#N)c(Br)c1C(F)(F)F`, the mortality at 0.25 mg/kg in the assay with Culex pipiens pallens [6] is 100%. Further, the mortality at 5 mg/kg with Mythimna separata [9] stood at 0%. Besides, in the assay on Mythimna separata [2], the mortality at 20 mg/kg was determined as 100%. Moreover, the mortality at 200 mg/kg in the assay with Tetranychus cinnabarinus [3] was 100%. In addition, the mortality at 10 mg/kg in the assay on Mythimna separata [4] was found to be 100%. Also, the mortality at 0.5 mg/kg in the assay on Culex pipiens pallens [7] was 100%. Moreover, in the assay on Culex pipiens pallens [8], the mortality at 0.1 mg/kg was 10%.
As for `CCOCn1c(-c2ccc(Cl)cc2)c(C#N)c(Br)c1C(F)(F)F` [CHLORFENAPYR], the mortality at 0.25 mg/kg in the assay with Culex pipiens pallens [6] was found to be 100%. Moreover, the mortality at 5 mg/kg in the assay on Mythimna separata [9] worked out at 0%. Also, in the assay on Tetranychus cinnabarinus [1], the mortality at 50 mg/kg stood at 93%. For the same compound, the mortality at 20 mg/kg in the assay with Mythimna separata [2] was found to be 100%. In the assay on Tetranychus cinnabarinus [3], the mortality at 200 mg/kg came to 100%. Moreover, the mortality at 10 mg/kg in the assay on Mythimna separata [4] came out at 100%. Also, the mortality at 0.5 mg/kg in the assay with Culex pipiens pallens [7] came to 100%. For the same compound, the mortality at 100 mg/kg in the assay on Tetranychus cinnabarinus [5] was determined as 97%. In the assay with Culex pipiens pallens [8], the mortality at 0.1 mg/kg worked out at 100%.

As a reminder, the mortality is the percentage killed.
